According to the supplement of paper PMC11451515:

Tested on: SEM cells
Test: cell viability relative to DMSO control; higher = less cytotoxic
Settings: 48 h
Summary of the method: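 Viability was expressed as a per-plate percentage of DMSO wells, with cell-free wells as background. Leukemia cells (NOMO1 or SEM at 500 cells/well, P12-Ichikawa at 1000 cells/well) were adapted for at least four passages in each medium and seeded in 1536-well plates (5 μl). Library compounds in DMSO were pin-dosed over an 11-point threefold series from 47 μM to 0.79 nM, and CellTiter-Glo One luminescence was read after 48 h at 37°C.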

[1] = HPLM + 10% dialyzed FBS, 0.000781 µM
[2] = HPLM + 10% dialyzed FBS, 0.00234 µM
[3] = HPLM + 10% dialyzed FBS, 0.00702 µM
[4] = HPLM + 10% dialyzed FBS, 0.0211 µM
[5] = HPLM + 10% dialyzed FBS, 0.0632 µM
[6] = HPLM + 10% dialyzed FBS, 0.19 µM
[7] = HPLM + 10% dialyzed FBS, 0.569 µM
[8] = HPLM + 10% dialyzed FBS, 1.71 µM
[9] = HPLM + 10% dialyzed FBS, 5.12 µM
[10] = HPLM + 10% dialyzed FBS, 15.4 µM
[11] = HPLM + 10% dialyzed FBS, 46.1 µM
[12] = RPMI 5 mM glucose + 10% FBS, 0.000781 µM
[13] = RPMI 5 mM glucose + 10% FBS, 0.00234 µM
[14] = RPMI 5 mM glucose + 10% FBS, 0.00702 µM
[15] = RPMI 5 mM glucose + 10% FBS, 0.0211 µM
[16] = RPMI 5 mM glucose + 10% FBS, 0.0632 µM
[17] = RPMI 5 mM glucose + 10% FBS, 0.19 µM
[18] = RPMI 5 mM glucose + 10% FBS, 0.569 µM
[19] = RPMI 5 mM glucose + 10% FBS, 1.71 µM
[20] = RPMI 5 mM glucose + 10% FBS, 5.12 µM
[21] = RPMI 5 mM glucose + 10% FBS, 15.4 µM
[22] = RPMI 5 mM glucose + 10% FBS, 46.1 µM
[23] = RPMI 5 mM glucose + 10% dialyzed FBS, 0.000781 µM
[24] = RPMI 5 mM glucose + 10% dialyzed FBS, 0.00234 µM
[25] = RPMI 5 mM glucose + 10% dialyzed FBS, 0.00702 µM
[26] = RPMI 5 mM glucose + 10% dialyzed FBS, 0.0211 µM
[27] = RPMI 5 mM glucose + 10% dialyzed FBS, 0.0632 µM
[28] = RPMI 5 mM glucose + 10% dialyzed FBS, 0.19 µM
[29] = RPMI 5 mM glucose + 10% dialyzed FBS, 0.569 µM
[30] = RPMI 5 mM glucose + 10% dialyzed FBS, 1.71 µM
[31] = RPMI 5 mM glucose + 10% dialyzed FBS, 5.12 µM
[32] = RPMI 5 mM glucose + 10% dialyzed FBS, 15.4 µM
[33] = RPMI 5 mM glucose + 10% dialyzed FBS, 46.1 µM

SMILES: OC1=CC2=C(C=C1)C(=O)\C(=C(O2)\C3=CC(=C(O)C=C3)O)O
- cell viability [1]: 103%
- cell viability [2]: 116%
- cell viability [3]: 104%
- cell viability [4]: 93.6%
- cell viability [5]: 102%
- cell viability [6]: 99.5%
- cell viability [7]: 102%
- cell viability [8]: 104%
- cell viability [9]: 104%
- cell viability [10]: 93.2%
- cell viability [11]: 32.9%
- cell viability [12]: 111%
- cell viability [13]: 113%
- cell viability [14]: 102%
- cell viability [15]: 111%
- cell viability [16]: 117%
- cell viability [17]: 102%
- cell viability [18]: 102%
- cell viability [19]: 97%
- cell viability [20]: 98.2%
- cell viability [21]: 100%
- cell viability [22]: 22.8%
- cell viability [23]: 84.9%
- cell viability [24]: 98.1%
- cell viability [25]: 89.9%
- cell viability [26]: 91.6%
- cell viability [27]: 99.2%
- cell viability [28]: 96.5%
- cell viability [29]: 103%
- cell viability [30]: 88.5%
- cell viability [31]: 85.9%
- cell viability [32]: 75.1%
- cell viability [33]: 20.1%

SMILES: COc1cc([C@@H]2c3cc4c(cc3[C@H](O)[C@H]3COC(=O)[C@@H]23)OCO4)cc(OC)c1OC
- cell viability [1]: 83.1%
- cell viability [2]: 82.7%
- cell viability [3]: 95.3%
- cell viability [4]: 101%
- cell viability [5]: 86.7%
- cell viability [6]: 69.5%
- cell viability [7]: 30.2%
- cell viability [8]: 19.1%
- cell viability [9]: 18.8%
- cell viability [10]: 13.2%
- cell viability [11]: 11.6%
- cell viability [12]: 101%
- cell viability [13]: 97.2%
- cell viability [14]: 104%
- cell viability [15]: 98.3%
- cell viability [16]: 93.5%
- cell viability [17]: 80.7%
- cell viability [18]: 23.2%
- cell viability [19]: 12.1%
- cell viability [20]: 12.2%
- cell viability [21]: 13.5%
- cell viability [22]: 6.13%
- cell viability [23]: 75.4%
- cell viability [24]: 76%
- cell viability [25]: 99.9%
- cell viability [26]: 86.5%
- cell viability [27]: 81.2%
- cell viability [28]: 63%
- cell viability [29]: 29.2%
- cell viability [30]: 16.8%
- cell viability [31]: 17.9%
- cell viability [32]: 16.9%
- cell viability [33]: 8.73%

SMILES: CN(C)C1=CC(=CC=C1)C\2=C\3C(=O)N(NC3=C/C(=O)N2C)C4=CC=CC=C4Cl
- cell viability [1]: 98.5%
- cell viability [2]: 105%
- cell viability [3]: 111%
- cell viability [4]: 107%
- cell viability [5]: 102%
- cell viability [6]: 103%
- cell viability [7]: 98.1%
- cell viability [8]: 16.9%
- cell viability [9]: 5.63%
- cell viability [10]: 5.04%
- cell viability [11]: 6.91%
- cell viability [23]: 109%
- cell viability [24]: 109%
- cell viability [25]: 136%
- cell viability [26]: 116%
- cell viability [27]: 104%
- cell viability [28]: 124%
- cell viability [29]: 95.9%
- cell viability [30]: 7.24%
- cell viability [31]: 5.43%
- cell viability [32]: 6.87%
- cell viability [33]: 7.46%

SMILES: COc1cccc2c1C(=O)c1c(O)c3c(c(O)c1C2=O)C[C@@](O)(C(=O)CO)C[C@@H]3O[C@H]1C[C@H](N)[C@H](O[C@H]2CCCCO2)[C@H](C)O1
- cell viability [1]: 101%
- cell viability [2]: 106%
- cell viability [3]: 111%
- cell viability [4]: 103%
- cell viability [5]: 102%
- cell viability [6]: 129%
- cell viability [7]: 102%
- cell viability [8]: 81.8%
- cell viability [9]: 13%
- cell viability [10]: 109%
- cell viability [11]: 72.2%
- cell viability [12]: 79.7%
- cell viability [13]: 84.3%
- cell viability [14]: 89.5%
- cell viability [15]: 91%
- cell viability [16]: 65.2%
- cell viability [17]: 96.1%
- cell viability [18]: 66.6%
- cell viability [19]: 44.8%
- cell viability [20]: 7.83%
- cell viability [21]: 95.8%
- cell viability [22]: 59%
- cell viability [23]: 92.9%
- cell viability [24]: 110%
- cell viability [25]: 119%
- cell viability [26]: 123%
- cell viability [27]: 117%
- cell viability [28]: 115%
- cell viability [29]: 95.8%
- cell viability [30]: 77.3%
- cell viability [31]: 18.3%
- cell viability [32]: 126%
- cell viability [33]: 105%

SMILES: NC(=O)[C@H]1CCS[C@@H]2C[C@]3(CCCN3C(=O)Cc3ccc(NC(=O)COc4ccc(Cl)cc4Cl)cc3)C(=O)N12
- cell viability [1]: 96.1%
- cell viability [2]: 101%
- cell viability [3]: 94%
- cell viability [4]: 107%
- cell viability [5]: 104%
- cell viability [6]: 103%
- cell viability [7]: 97.7%
- cell viability [8]: 61.4%
- cell viability [9]: 38%
- cell viability [10]: 28.2%
- cell viability [11]: 31.5%
- cell viability [12]: 105%
- cell viability [13]: 106%
- cell viability [14]: 112%
- cell viability [15]: 107%
- cell viability [16]: 121%
- cell viability [17]: 103%
- cell viability [18]: 85.7%
- cell viability [19]: 18.4%
- cell viability [20]: 16.2%
- cell viability [21]: 19.6%
- cell viability [22]: 10.2%
- cell viability [23]: 115%
- cell viability [24]: 102%
- cell viability [25]: 123%
- cell viability [26]: 120%
- cell viability [27]: 113%
- cell viability [28]: 114%
- cell viability [29]: 117%
- cell viability [30]: 66.6%
- cell viability [31]: 35.1%
- cell viability [32]: 20.8%
- cell viability [33]: 19.9%

SMILES: O=C1CCC[C@@H]2[C@H]3CCCN4CCC[C@@H](CN12)[C@@H]34
- cell viability [1]: 44.2%
- cell viability [2]: 65.4%
- cell viability [3]: 55.2%
- cell viability [4]: 65.6%
- cell viability [5]: 72.7%
- cell viability [6]: 73.2%
- cell viability [7]: 72.3%
- cell viability [8]: 78.1%
- cell viability [9]: 67.5%
- cell viability [10]: 71.3%
- cell viability [11]: 73%
- cell viability [12]: 73%
- cell viability [13]: 87%
- cell viability [14]: 75.5%
- cell viability [15]: 82.4%
- cell viability [16]: 92.8%
- cell viability [17]: 92.2%
- cell viability [18]: 93.2%
- cell viability [19]: 84%
- cell viability [20]: 63.1%
- cell viability [21]: 80%
- cell viability [22]: 72.6%
- cell viability [23]: 60.4%
- cell viability [24]: 79.1%
- cell viability [25]: 62.4%
- cell viability [26]: 89.7%
- cell viability [27]: 73.9%
- cell viability [28]: 82.6%
- cell viability [29]: 77.6%
- cell viability [30]: 72.3%
- cell viability [31]: 64.2%
- cell viability [32]: 68.5%
- cell viability [33]: 68.3%

SMILES: [O-]C(=O)C/1=N/C(=O)NC(=O)N1
- cell viability [1]: 95.8%
- cell viability [2]: 99.2%
- cell viability [3]: 93.4%
- cell viability [4]: 111%
- cell viability [5]: 85.1%
- cell viability [6]: 20.6%
- cell viability [7]: 94.8%
- cell viability [8]: 99.8%
- cell viability [9]: 100%
- cell viability [10]: 91.6%
- cell viability [11]: 84.3%
- cell viability [12]: 93.7%
- cell viability [13]: 99.6%
- cell viability [14]: 95.6%
- cell viability [15]: 93.6%
- cell viability [16]: 87.4%
- cell viability [17]: 34.2%
- cell viability [18]: 90.8%
- cell viability [19]: 83.7%
- cell viability [20]: 100%
- cell viability [21]: 88.1%
- cell viability [22]: 83.7%
- cell viability [23]: 97.1%
- cell viability [24]: 100%
- cell viability [25]: 101%
- cell viability [26]: 106%
- cell viability [27]: 100%
- cell viability [28]: 34.7%
- cell viability [29]: 96.8%
- cell viability [30]: 89.8%
- cell viability [31]: 104%
- cell viability [32]: 88.7%
- cell viability [33]: 91.8%

SMILES: Clc1cccc(-n2nnnc2NCc2ccccc2Oc2ccccn2)c1Cl
- cell viability [1]: 102%
- cell viability [2]: 123%
- cell viability [3]: 124%
- cell viability [4]: 133%
- cell viability [5]: 123%
- cell viability [6]: 131%
- cell viability [7]: 128%
- cell viability [8]: 125%
- cell viability [9]: 127%
- cell viability [10]: 139%
- cell viability [11]: 138%
- cell viability [23]: 116%
- cell viability [24]: 149%
- cell viability [25]: 125%
- cell viability [26]: 140%
- cell viability [27]: 113%
- cell viability [28]: 126%
- cell viability [29]: 149%
- cell viability [30]: 129%
- cell viability [31]: 148%
- cell viability [32]: 147%
- cell viability [33]: 119%
